According to US20040024024A1, “Aromatic sulfone hydroxamates and their use as protease inhibitors” (priority 2001, published 2004):
Counter-ions that a name gives are not always drawn.

What was measured:
Human recombinant MMP-2 = target: T1, Human recombinant MMP-2 (Homo sapiens, UniProt P08253); test: In vitro MMP inhibition, IC50 determination (fluorogenic substrate I); type: biochemical
T1 construct: made in house; host or cells: MMP-2-transfected p2AHT2 cells
T1 sequence (P08253 110-660): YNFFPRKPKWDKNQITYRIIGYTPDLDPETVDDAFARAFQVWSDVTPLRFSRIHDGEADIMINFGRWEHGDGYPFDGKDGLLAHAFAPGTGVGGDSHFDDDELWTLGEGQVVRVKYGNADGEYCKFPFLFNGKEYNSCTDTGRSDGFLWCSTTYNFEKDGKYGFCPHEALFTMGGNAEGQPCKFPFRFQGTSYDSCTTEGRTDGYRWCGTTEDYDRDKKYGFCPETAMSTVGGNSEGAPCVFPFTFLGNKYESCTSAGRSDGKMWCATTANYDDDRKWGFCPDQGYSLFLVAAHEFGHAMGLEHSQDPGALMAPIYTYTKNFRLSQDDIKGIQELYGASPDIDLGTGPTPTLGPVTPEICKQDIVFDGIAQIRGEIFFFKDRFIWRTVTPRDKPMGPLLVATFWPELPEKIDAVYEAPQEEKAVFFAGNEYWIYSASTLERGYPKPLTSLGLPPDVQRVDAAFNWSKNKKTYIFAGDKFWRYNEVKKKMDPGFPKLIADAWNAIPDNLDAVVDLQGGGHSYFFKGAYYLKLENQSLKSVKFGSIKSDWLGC
Method in brief: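 IC50 was derived from the concentration-dependent fall in fluorescence (ex 328, em 415 nm) on Gly-Leu cleavage of 4 μM MCA/Dpa-quenched substrate I. Assays ran at room temperature in pH 7.5 Tris/NaCl/CaCl2/Brij buffer with MMP-2 activated by trypsin or APMA; inhibitors were diluted from 1% DMSO stocks.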

Human recombinant MMP-1 = target: T2, Human recombinant MMP-1 (Homo sapiens, UniProt P03956); test: In vitro MMP inhibition, Ki determination (fluorogenic substrate II); type: biochemical
T2 construct: made in house; host or cells: MMP-1-transfected HT-1080 cells (spent media)
T2 sequence (P03956 100-469): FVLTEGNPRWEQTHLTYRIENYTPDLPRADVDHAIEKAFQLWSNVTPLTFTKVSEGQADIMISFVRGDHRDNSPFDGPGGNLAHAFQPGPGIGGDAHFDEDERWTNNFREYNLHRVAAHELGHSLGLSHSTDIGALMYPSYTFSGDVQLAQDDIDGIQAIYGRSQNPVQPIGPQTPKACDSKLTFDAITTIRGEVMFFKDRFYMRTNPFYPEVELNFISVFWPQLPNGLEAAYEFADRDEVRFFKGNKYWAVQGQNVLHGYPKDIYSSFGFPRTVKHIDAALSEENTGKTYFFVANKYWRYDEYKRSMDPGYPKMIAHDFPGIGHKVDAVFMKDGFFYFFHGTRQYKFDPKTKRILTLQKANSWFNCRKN
Method: Several hydroxamates and salts thereof were analyzed in in vitro assays to determine their ability to inhibit the MMP cleavage of peptide substrates. Inhibition (Ki) and IC50 constants were calculated from the assayed hydroxamate-MMP interactions.
Human recombinant MMP-1, MMP-2, MMP-9, MMP-13, and MMP-14 were used in this assay. All enzymes were prepared in Assignee's laboratories following usual laboratory procedures. Protocols for the preparation and use of these enzymes are available in the scientific literature. See, e.g., Enzyme Nomenclature (Academic Press, San Diego, Calif., 1992) (and the citations therein). See also, Frije et al., J. Biol. Chem., 26(24), 16766-73 (1994).
The MMP-1 proenzyme was purified from the spent media of MMP-1-transfected HT-1080 cells provided by Dr. Harold Welgus of Washington University (St. Louis, Mo.). The protein was purified on a zinc chelating column.
All MMPs were activated using 4-aminophenylmercuric acetate (“APMA”, Sigma Chemical, St. Louis, Mo.) or trypsin. MMP-9 also was activated using human recombinant MMP-3 (purified in Assignee's laboratory following standard cloning and purification techniques).
Two fluorogenic, methoxycoumarin-containing polypeptide substrates were used in the MMP inhibition assays:
MCA-ArgProLeuGlyLeuDpaAlaArgGluArgNH2 (II)
Here, “Dpa” is 3-(2,4-dinitrophenyl)-L-2,3-diaminopropionyl group, and “MCA” is 7-methoxycoumarin-4-yl acetyl. Substrate (I) was purchased from Baychem (Redwood City, Calif.), and substrate II was prepared Assignee's laboratory. Substrate I was used in the IC50 determination assays, while substrate II was used in the Ki determination assays. In the absence of MMP inhibitory activity, either substrate is cleaved at the Gly-Leu peptide bond. This cleavage separates the highly fluorogenic peptide from the 2,4-dinitrophenyl quencher, thus resulting in increase of fluorescent intensity.
The stock solutions of the assayed hydroxamates (or salts thereof) were prepared in 1% dimethyl sulfoxide (DMSO). These stock solutions were diluted in Buffer A (100 mM Tris-HCl, 100 mM NaCl, 10 mM CaCl2, 0.05% polyoxyethylene 23 lauryl ether, pH 7.5) to obtain solutions with different hydroxamate concentrations, i.e., assay solutions with different concentrations of the assayed MMP inhibitory compound. The experiment controls contained the same amount of Buffer A/DMSO as the assayed sample, but contained no hydroxamate (or salt thereof).
The assays from which the Ki determinations were made were performed as follows. The assayed hydroxamate samples were incubated in separate wells of untreated white polystyrene plates (Nunc Nalgene International, Rochester, N.Y.), and analyzed on a Tecan SpectraFlour Plus plate reader. The excitation wavelength was 330 nm, and the emission wavelength—420 nm. All samples (assayed hydroxamates and controls) were incubated in separate plate wells at room temperature for 1 hr in the presence of 4 μM of MMP substrate (II). In the absence of MMP inhibitory activity, substrate II was cleaved at the Gly-Leu bond resulting in an increase of relative fluorescence. Inhibition was observed as a reduced rate of this increase in relative fluorescence. The various hydroxamates were analyzed using a single low enzyme concentration with a single substrate concentration fixed at or below the Km. This protocol is a modification of method by Knight et al., FEBS Lett., 296(3), 263-266 (1992). Apparent inhibitory constants were determined by non-linear regression of reaction velocity as a function of inhibitor and enzyme concentration using Morrison's equation, as described by Kuzmic, Anal. Biochem. 286, 45-50 (2000). Modifications were made in the non-linear regression method to allow a common control reaction rate and effective enzyme concentration to be shared between all dose-response relationships on a given assay plate. […]

[1] = substrate (I) 4 μM, room temperature, values not in parenthesis
[2] = substrate (II) 4 μM, 1 hr room temperature, apparent Ki, values in parenthesis

Row | IC50 (Human recombinant MMP-2; value outside parenthesis) | Ki (Human recombinant MMP-1; value in parenthesis) | IC50 (Human recombinant MMP-2; value outside parentheses) | SMILES | also measured
1 | 4.75 µM | > 10 µM | – | O=C(NO)C1(S(=O)(=O)c2ccc(OCCCc3cccc(-c4ccc(OC(F)(F)F)cc4)c3)cc2)CCOCC1 [Example 147] | –
2 | – | – | 2.14 µM | O=C(NO)C1(S(=O)(=O)c2ccc(OCCCc3cccc(-c4csc5ccccc45)c3)cc2)CCOCC1 [Example 631] | Ki (Human recombinant MMP-1; value in parentheses): > 10 µM
3 | 0.136 µM | > 10 µM | – | O=C(NO)C1(S(=O)(=O)c2ccc(OCCCc3cccc(-c4cccnc4)c3)cc2)CCOCC1 [Example 150] | –
4 | 1.07 µM | > 10 µM | – | Cc1ccccc1-c1cccc(CCCOc2ccc(S(=O)(=O)C3(C(=O)NO)CCOCC3)cc2)c1 [Example 164] | –
5 | – | – | 0.537 µM | O=C(NO)C1(S(=O)(=O)c2ccc(OCCCc3cccc(-c4ccc5ccccc5c4)c3)cc2)CCOCC1 [Example 629] | Ki (Human recombinant MMP-1; value in parentheses): > 10 µM
6 | 0.0608 µM | 5.6 µM | – | O=C(CCCc1ccc(S(=O)(=O)C2(C(=O)NO)CCOCC2)cc1)c1cccc(-c2ccccc2)c1 [Example 219] | –
7 | – | – | – | O=C(NO)C1(S(=O)(=O)c2ccc(OCCc3cccc(-c4ccccn4)c3)cc2)CCOCC1 [Example 40] | IC50 (Human recombinant MMP-2; [1]): 0.112 µM; Ki (Human recombinant MMP-1; [2]): > 10 µM
8 | – | – | – | O=C(NO)C1(S(=O)(=O)c2ccc(OCCCn3nnc(-c4ccc(OC(F)(F)F)cc4)n3)cc2)CCN(CC2CC2)CC1 [Example 53] | IC50 (Human recombinant MMP-2; [1]): 0.384 µM; Ki (Human recombinant MMP-1; [2]): > 10 µM
9 | 0.0588 µM | > 10 µM | – | COCCN1CCC(C(=O)NO)(S(=O)(=O)c2ccc(OCCCc3nc(-c4ccccc4OC(F)(F)F)no3)cc2)CC1 [Example 152] | –
10 | 0.383 µM | > 10 µM | – | O=C(NO)C1(S(=O)(=O)c2ccc(OCCc3cccc(-c4ccc(F)cc4)c3)cc2)CCOCC1 [Example 123] | –
11 | 0.0771 µM | > 10 µM | – | O=C(NO)C1(S(=O)(=O)c2ccc(OCCCc3cccc(-c4ccncc4)c3)cc2)CCOCC1 [Example 149] | –
12 | 0.0138 µM | > 10 µM | – | CCc1ccccc1-c1noc(CCCOc2ccc(S(=O)(=O)C3(C(=O)NO)CCN(CCOC)CC3)cc2)n1 [Example 155] | –
13 | – | – | 2.83 µM | O=C(NO)C1(S(=O)(=O)c2ccc(OCCCc3cccc(-c4cc5ccccc5s4)c3)cc2)CCOCC1 [Example 633] | Ki (Human recombinant MMP-1; value in parentheses): > 10 µM
14 | 0.208 µM | > 10 µM | – | O=C(NO)C1(S(=O)(=O)c2ccc(OCCCc3cccc(-c4ccc(F)cc4)c3)cc2)CCN(C2CC2)CC1 [Example 139] | –
15 | – | – | – | COCCN1CCC(C(=O)NO)(S(=O)(=O)c2ccc(OCCCn3nnc(-c4ccc(OC(F)(F)F)cc4)n3)cc2)CC1 [Example 48] | IC50 (Human recombinant MMP-2; [1]): 0.105 µM
16 | – | – | 0.0383 µM | O=C(NO)C1(S(=O)(=O)c2ccc(OCCCc3cncc(-c4ccccc4)c3)cc2)CCOCC1 [Example 524] | –
17 | – | – | – | O=C(NO)C1(S(=O)(=O)c2ccc(OCCCn3nnc(-c4ccc(OC(F)(F)F)cc4)n3)cc2)CCN(C2CC2)CC1 [Example 49] | IC50 (Human recombinant MMP-2; [1]): 0.274 µM; Ki (Human recombinant MMP-1; [2]): > 10 µM

Row | IC50 (Human recombinant MMP-2; value outside parenthesis) | Ki (Human recombinant MMP-1; value in parenthesis) | IC50 (Human recombinant MMP-2; value outside parentheses) | SMILES | also measured
18 | 0.312 µM | > 10 µM | – | O=C(NO)C1(S(=O)(=O)c2ccc(OCCc3cccc(-c4ccccc4F)c3)cc2)CCOCC1 [Example 115] | –
19 | – | – | 0.0735 µM | O=C(COc1ccc(S(=O)(=O)C2(C(=O)NO)CCOCC2)cc1)c1cccc(-c2ccccc2)c1 [Example 563] | Ki (Human recombinant MMP-1; value in parentheses): > 10 µM
20 | – | – | 0.0129 µM | O=C(NO)C1(S(=O)(=O)c2ccc(OCCCc3cncc(Br)c3)cc2)CCOCC1 [Example 522] | Ki (Human recombinant MMP-1; value in parentheses): > 10 µM
21 | – | – | 1.17 µM | O=C(NO)C1(S(=O)(=O)c2ccc(OCCCc3cccc(-c4ccc(F)cc4F)c3)cc2)CCOCC1 [Example 630] | Ki (Human recombinant MMP-1; value in parentheses): > 10 µM
22 | 0.226 µM | > 10 µM | – | CN(C(=O)CCCOc1ccc(S(=O)(=O)C2(C(=O)NO)CCOCC2)cc1)c1ccc(OC(F)(F)F)cc1 [Example 249] | –
23 | – | – | – | COCCN1CCC(C(=O)NO)(S(=O)(=O)c2ccc(OCCCc3nc(-c4ccc(OC(F)(F)F)cc4)no3)cc2)CC1 [Example 42] | IC50 (Human recombinant MMP-2; [1]): 0.1 µM; Ki (Human recombinant MMP-1; [2]): > 10 µM
24 | 0.438 µM | > 10 µM | – | COCCN1CCC(C(=O)NO)(S(=O)(=O)c2ccc(OCCCc3nc(-c4ccc(CC(C)C)cc4)no3)cc2)CC1 [Example 175] | –
25 | 0.0132 µM | > 10 µM | – | O=C(NO)C1(S(=O)(=O)c2ccc(OCCCc3ccnc(-c4ccccc4)c3)cc2)CCOCC1 [Example 197] | –
26 | – | – | 1.7 µM | O=C(NO)C1(S(=O)(=O)c2ccc(OCCCc3cccc(-c4ccc5c(c4)OCO5)c3)cc2)CCOCC1 [Example 628] | Ki (Human recombinant MMP-1; value in parentheses): > 10 µM
27 | – | – | 2.31 µM | C=Cc1ccc(-c2cccc(CCCOc3ccc(S(=O)(=O)C4(C(=O)NO)CCOCC4)cc3)c2)cc1 [Example 635] | Ki (Human recombinant MMP-1; value in parentheses): > 10 µM
28 | – | – | – | CCN1CCC(C(=O)NO)(S(=O)(=O)c2ccc(OCCCc3nc(-c4ccc(OC(F)(F)F)cc4)no3)cc2)CC1 [Example 41, 1-ethyl-N-hydroxy 4-{[4-(3-{3-[4-(trifluoromethoxy)phenyl]-1,2,4-oxadiazol-5-yl}propoxy)phenyl]sulfonyl}piperidine-4-carboxamide Hydrochloride] | IC50 (Human recombinant MMP-2; [1]): 0.357 µM; Ki (Human recombinant MMP-1; [2]): > 10 µM
29 | – | – | 0.0729 µM | O=C(NO)C1(S(=O)(=O)c2ccc(OCCCc3nc(-c4ccccc4)no3)cc2)CCOCC1 [Example 584] | Ki (Human recombinant MMP-1; value in parentheses): 2.76 µM
30 | 0.0273 µM | 3.58 µM | – | O=C(NO)C1(S(=O)(=O)c2ccc(OCCc3cccc(-c4cccnc4)c3)cc2)CCOCC1 [Example 125] | –
31 | 0.316 µM | > 10 µM | – | O=C(NO)C1(S(=O)(=O)c2ccc(OCCCc3cccc(Cc4ccccc4)c3)cc2)CCOCC1 [Example 98] | –
32 | – | – | 0.0035 µM | CCN1CCC(C(=O)NO)(S(=O)(=O)c2ccc(OCCCSc3nc4ccccc4s3)cc2)CC1 [Example 591] | Ki (Human recombinant MMP-1; value in parentheses): > 10 µM
33 | – | – | 0.482 µM | O=C(NO)C1(S(=O)(=O)c2ccc(OCCCc3cccc(-c4cccs4)c3)cc2)CCOCC1 [Example 595] | –
34 | 1.38 µM | > 10 µM | – | Cc1ccc(-c2cccc(CCOc3ccc(S(=O)(=O)C4(C(=O)NO)CCOCC4)cc3)c2)cc1 [Example 127] | –
